This note sets out measurements from patent US9708357B2, “4′-azido, 3′-fluoro substituted nucleoside derivatives as inhibitors of HCV RNA replication” (Riboscience LLC, priority 2011, dated 2017).

Where only a bound is given, the exact number is not on record here.

Data set [1] concerns HCV genotype 1b subgenomic replicon (2209-23 cells). The experiment in a line: HCV Replicon assay (Renilla luciferase reporter). In kind it is cell-based. As to conditions: Hepatitis C virus, Huh-7, 72 h; genotype 1b replicon, 2209-23 Huh7 cells, three days incubation, Renilla luciferase readout.
A further data set in a line: in vitro. As to conditions: human.

For `C[C@H](NP(=O)(OC[C@@]1(N=[N+]=[N-])O[C@@H](n2ccc(N)nc2=O)[C@H](O)[C@@H]1F)Oc1cccc2ccccc12)C(=O)OCc1ccccc1` (stereo partly drawn) [Compound I-5, (S)-2-[[(2R,3S,4S,5R)-5-(4-Amino-2-oxo-2H-pyrimidin-1-yl)-2-azido-3-fluoro-4-hydroxy-tetrahydro-furan-2-ylmethoxy]-(naphthalen-1-yloxy)-phosphorylamino]-propionic acid benzyl ester], in data set [1], the IC50 was found to be 1.54 µM. The CC50 in the data set “in vitro” was 91.2 µM.
As for `CCOC(=O)[C@H](C)NP(=O)(OC[C@@]1(N=[N+]=[N-])O[C@@H](n2ccc(N)nc2=O)[C@H](O)[C@@H]1F)Oc1cccc2ccccc12` (stereo partly drawn) [Compound I-6, (S)-2-[[(2R,3S,4S,5R)-5-(4-Amino-2-oxo-2H-pyrimidin-1-yl)-2-azido-3-fluoro-4-hydroxy-tetrahydro-furan-2-ylmethoxy]-(naphthalen-1-yloxy)-phosphorylamino]-propionic acid ethyl ester], the IC50 in data set [1] was determined as 32 µM. The CC50 in the data set “in vitro” was > 100 µM.
On the same counts, the results for `CC(C)OC(=O)[C@H](C)NP(=O)(O)OC[C@@]1(N=[N+]=[N-])O[C@@H](n2ccc(N)nc2=O)[C@H](O)[C@@H]1F` [Compound I-8, (S)-2-{[(2R,3S,4S,5R)-5-(4-Amino-2-oxo-2H-pyrimidin-1-yl)-2-azido-3-fluoro-4-hydroxy-tetrahydro-furan-2-ylmethoxy]-hydroxy-phosphorylamino}-propionic acid isopropyl ester] are > 100 µM and > 100 µM.
On the same counts, the results for `CC(C)OC(=O)[C@H](C)NP(=O)(OC[C@@]1(N=[N+]=[N-])O[C@@H](n2ccc(N)nc2=O)[C@H](O)[C@@H]1F)Oc1cccc2ccccc12` (stereo partly drawn) [Compound I-4, (S)-2-[[(2R,3S,4S,5R)-5-(4-Amino-2-oxo-2H-pyrimidin-1-yl)-2-azido-3-fluoro-4-hydroxy-tetrahydro-furan-2-ylmethoxy]-(naphthalen-1-yloxy)-phosphorylamino]-propionic acid isopropyl ester] are > 100 µM and > 100 µM.
As to `CCOC(=O)[C@H](C)NP(=O)(OC[C@@]1(N=[N+]=[N-])O[C@@H](n2ccc(=O)[nH]c2=O)[C@H](O)[C@@H]1F)Oc1cccc2ccccc12` (stereo partly drawn) [Compound I-3, (S)-2-[[(2R,3S,4S,5R)-2-Azido-5-(2,4-dioxo-3,4-dihydro-2H-pyrimidin-1-yl)-3-fluoro-4-hydroxy-tetrahydro-furan-2-ylmethoxy]-(naphthalen-1-yloxy)-phosphorylamino]-propionic acid ethyl ester], half-maximal inhibition in data set [1] (IC50) required 79.1 µM. For the same compound, in “in vitro”, the CC50 was > 100 µM.
`CCC(=O)O[C@H]1[C@H](n2ccc(N)nc2=O)O[C@@](COP(=O)(N[C@@H](C)C(=O)OC(C)C)Oc2cccc3ccccc23)(N=[N+]=[N-])[C@H]1F` (stereo partly drawn) [Compound I-9, (S)-2-[[(2R,3S,4S,5R)-5-(4-Amino-2-oxo-2H-pyrimidin-1-yl)-2-azido-3-fluoro-4-propionyloxy-tetrahydro-furan-2-ylmethoxy]-(naphthalen-1-yloxy)-phosphorylamino]-propionic acid isopropyl ester] registered an IC50 in data set [1] of 27 µM. This compound yielded a CC50 in the data set “in vitro” of 58 µM.
As to `CC(C)OC(=O)[C@H](C)NP(=O)(OC[C@@]1(N=[N+]=[N-])O[C@@H](n2ccc(=O)[nH]c2=O)[C@H](O)[C@@H]1F)Oc1ccccc1` (stereo partly drawn) [Compound I-1, (S)-2-{[(2R,3S,4S,5R)-2-Azido-5-(2,4-dioxo-3,4-dihydro-2H-pyrimidin-1-yl)-3-fluoro-4-hydroxy-tetrahydro-furan-2-ylmethoxy]-phenoxy-phosphorylamino}-propionic acid isopropyl ester], in data set [1], the IC50 was > 100 µM. Besides, the CC50 in the data set “in vitro” was > 100 µM.
As to `CC(C)OC(=O)[C@H](C)NP(=O)(OC[C@@]1(N=[N+]=[N-])O[C@@H](n2ccc(N)nc2=O)[C@H](O)[C@@H]1F)Oc1ccccc1` (stereo partly drawn) [Compound I-7, (S)-2-{[(2R,3S,4S,5R)-5-(4-Amino-2-oxo-2H-pyrimidin-1-yl)-2-azido-3-fluoro-4-hydroxy-tetrahydro-furan-2-ylmethoxy]-phenoxy-phosphorylamino}-propionic acid isopropyl ester], the IC50 in data set [1] amounted to 56 µM. In addition, the CC50 in the data set “in vitro” was > 100 µM.
On the same counts, the results for `CCOC(=O)[C@H](C)NP(=O)(OC[C@@]1(N=[N+]=[N-])O[C@@H](n2ccc(=O)[nH]c2=O)[C@H](O)[C@@H]1F)Oc1ccccc1` (stereo partly drawn) [Compound I-2, (S)-2-{[(2R,3S,4S,5R)-2-Azido-5-(2,4-dioxo-3,4-dihydro-2H-pyrimidin-1-yl)-3-fluoro-4-hydroxy-tetrahydro-furan-2-ylmethoxy]-phenoxy-phosphorylamino}-propionic acid ethyl ester] are 39.8 µM and > 100 µM.
